Values quoted from earlier work in paper PMC10268011 (ACS Omega, 2023).

Question: For `COc1ccc(COc2ccc(Cc3cnc(N)nc3N)cc2OC)cc1` [GW2580, 5-(3-Methoxy-4-((4-Methoxybenzyl)Oxy)Benzyl)Pyrimidine-2,4-Diamine], which systemic bioavailability is on record?
Answer: high systemic bioavailability
